Data as given in patent EP3414229B1, “QUINOLINONE LYSYL OXIDASE-LIKE 2 INHIBITORS AND USES THEREOF” (Pharmakea, Inc., priority 2016, dated 2017).

Columns and labels:
human LOXL2 = target: T1, human LOXL2 (Homo sapiens, UniProt Q9Y4K0); assay: Human LOXL2 Amine Oxidase Activity Assay (Amplex Red fluorescence); format: biochemical; conditions: concentrated conditioned media from CHO cells stably expressing human LOXL2; 2h at 37 °C with test compound; DAP substrate
T1 construct: expressed in transfected cells; 10-20X concentrated conditioned media used as the enzyme source
T1 sequence (Q9Y4K0 26-774): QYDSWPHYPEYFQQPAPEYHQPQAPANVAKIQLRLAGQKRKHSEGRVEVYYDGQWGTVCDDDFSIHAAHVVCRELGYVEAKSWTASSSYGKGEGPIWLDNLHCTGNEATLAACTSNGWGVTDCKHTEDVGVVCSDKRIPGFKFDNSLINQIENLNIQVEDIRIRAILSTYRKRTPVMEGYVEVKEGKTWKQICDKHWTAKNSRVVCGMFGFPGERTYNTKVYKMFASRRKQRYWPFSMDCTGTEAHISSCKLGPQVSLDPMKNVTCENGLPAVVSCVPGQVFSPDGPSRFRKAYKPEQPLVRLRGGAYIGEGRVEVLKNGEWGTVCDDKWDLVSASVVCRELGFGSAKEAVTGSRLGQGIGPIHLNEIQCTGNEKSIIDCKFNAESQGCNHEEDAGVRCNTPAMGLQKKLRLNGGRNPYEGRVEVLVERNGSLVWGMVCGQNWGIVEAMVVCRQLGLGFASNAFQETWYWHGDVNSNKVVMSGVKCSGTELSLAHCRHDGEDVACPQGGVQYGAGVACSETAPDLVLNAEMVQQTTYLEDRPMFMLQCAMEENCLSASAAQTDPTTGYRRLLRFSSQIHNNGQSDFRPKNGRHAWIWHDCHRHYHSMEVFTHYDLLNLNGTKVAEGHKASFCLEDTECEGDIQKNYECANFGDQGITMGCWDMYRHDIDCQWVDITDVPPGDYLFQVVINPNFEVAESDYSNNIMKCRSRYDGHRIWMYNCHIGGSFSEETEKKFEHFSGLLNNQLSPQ
Procedure: Example B-1: Human LOXL2 Amine Oxidase Activity Assay
LOXL2 amine oxidase activity is evaluated by measuring Amplex Red fluorescence using 10-20X concentrated conditioned media from CHO cells stably expressing human LOXL2. To assay for amine oxidase activity, 10 µL of the concentrated conditioned media is incubated with 2 µL of test compound in DMSO and 73 µL Assay Buffer (50 mM Borate Buffer, pH8) for 2h at 37 °C. After the 2h incubation, 5 ul of 10 mM 1,5-Diaminopentane (DAP) diluted in Assay Buffer and 10 µl of Amplex Red Mix (8.5 µl Assay Buffer + 0.5 µl of 10 mM Amplex Red + 1 µl of 500 U/ml Horseradish Peroxidase) are added and the plate mixed and immediately placed on the FlexStaion for fluorescence measurements. Fluorescence is read in kinetic mode every 2 min for 1 hour at excitation = 544 and emission = 590. The amine oxidase activity is calculated from the slope of the linear portion of the curve.

C57B1/6 male mice = assay: Mouse Oropharyngeal Bleomycin Model of Lung Fibrosis; format: in vivo; conditions: dosed prophylactically at 60 mg/kg p.o.
Procedure: Example B-3: Mouse Oropharyngeal Bleomycin Model of Lung Fibrosis
Lung fibrosis is induced in C57B1/6 male mice by administering bleomycin (0.1-4 U/kg) via oropharyngeal instillation. Mice are either pretreated with vehicle or test compound (1 day to 1 hour) orally, intraperitoneally, intravenously or subcutaneously before bleomycin installation (prophylactic dosing) or 7-14 days post bleomycin instillation (therapeutic dosing). The route and frequency of dosing are based on previously determined pharmacokinetic properties for the LOXL2 inhibitor in mouse. After bleomycin instillation animals are monitored daily for weight loss and clinical signs for 14-28 days prior to sacrifice. […] For histological examination, lung slices are stained with Masson's trichrome or Picro-Sirius red to measure cross-linked collagen as an indicator of fibrosis and an Ashcroft score of lung fibrotic and inflammatory damage determined. In addition, immunohistochemistry of fibrotic proteins such as a-smooth muscle actin can be recorded. […] After the acid hydrolysis, 25-100 µl of the supernatant is dried down, resuspended in 25 µl water and the hydroxyproline content determined by the addition of 0.5 ml Chloramine T solution (140 mg Chloramine T in 6.5 ml ddH20 + 1 ml n-propanol + 2.5 ml 1M sodium acetate) and incubation at room temperature for 20 min. […]

NCc1cc(=O)c2ccccc2[nH]1 [Compound 1-1, 2-(Aminomethyl)quinolin-4(1H)-one]
IC50 (human LOXL2): < 0.3 µM

Cc1ccc(=O)n(-c2ccc3[nH]c(CN)cc(=O)c3c2)c1 [Compound 1-46, 2-(Aminomethyl)-6-(5-methyl-2-oxopyridin-1(2H)-yl)quinolin-4(1H)-one]
IC50 (human LOXL2): < 0.3 µM

C#Cc1ccc2[nH]c(CN)cc(=O)c2c1 [Compound 1-4, 2-(Aminomethyl)-6-ethynylquinolin-4(1H)-one]
IC50 (human LOXL2): < 0.3 µM

NCc1cc(=O)c2cc(-c3cnc(C(F)(F)F)nc3)ccc2[nH]1 [Compound 1-77, 2-(Aminomethyl)-6-(2-(trifluoromethyl)pyrimidin-5-yl)quinolin-4(1H)-one]
IC50 (human LOXL2): < 0.3 µM

Cn1c(CN)cc(=O)c2ccccc21 [Compound 1-2, 2-(Aminomethyl)-1-methylquinolin-4(1H)-one]
IC50 (human LOXL2): > 1 µM

NCc1cc(=O)c2cc(Br)ccc2[nH]1 [Compound 1-3, 2-(Aminomethyl)-6-bromoquinolin-4(1H)-one]
IC50 (human LOXL2): < 0.3 µM
efficacy in bleomycin model of lung fibrosis (C57B1/6 male mice): efficacious

NCc1cc(=O)c2cc(-c3ccc(C(F)(F)F)nc3)ccc2[nH]1 [Compound 1-74, 2-(Aminomethyl)-6-(6-(trifluoromethyl)pyridin-3-yl)quinolin-4(1H)-one]
IC50 (human LOXL2): < 0.3 µM

NCc1cc(=O)c2cc(-c3cn(-c4ccccc4)nn3)ccc2[nH]1 [Compound 1-6, 2-(Aminomethyl)-6-(1-phenyl-1H-1,2,3-triazol-4-yl)quinolin-4(1H)-one]
IC50 (human LOXL2): < 0.3 µM

NCc1cc(=O)c2cc(-c3ccccc3)ccc2[nH]1 [Compound 1-5, 2-(Aminomethyl)-6-phenylquinolin-4(1H)-one]
IC50 (human LOXL2): < 0.3 µM

COCCOc1ccc2[nH]c(CN)cc(=O)c2c1 [Compound 1-78, 2-(Aminomethyl)-6-(2-methoxyethoxy)quinolin-4(1H)-one]
IC50 (human LOXL2): < 0.3 µM

NCc1cc(=O)c2cc(-c3cncnc3)ccc2[nH]1 [Compound 1-40, 2-(Aminomethyl)-6-(pyrimidin-5-yl)quinolin-4(1H)-one]
IC50 (human LOXL2): < 0.3 µM

NCc1cc(=O)c2cc(-c3cccc4cccnc34)ccc2[nH]1 [Compound 1-65, 2-(Aminomethyl)-[6,8'-biquinolin]-4(1H)-one]
IC50 (human LOXL2): < 0.3 µM

COc1ccc2[nH]c(CN)cc(=O)c2c1 [Compound 1-9, 2-(Aminomethyl)-6-methoxyquinolin-4(1H)-one]
IC50 (human LOXL2): < 0.3 µM

NCc1cc(=O)c2cc(-n3cccn3)ccc2[nH]1 [Compound 1-8, 2-(Aminomethyl)-6-(1H-pyrazol-1-yl)quinolin-4(1H)-one]
IC50 (human LOXL2): < 0.3 µM

NCc1cc(=O)c2cc(-c3cncc(OCc4ccccc4)c3)ccc2[nH]1 [Compound 1-66, 2-(Aminomethyl)-6-(5-(benzyloxy)pyridin-3-yl)quinolin-4(1H)-one]
IC50 (human LOXL2): < 0.3 µM

NCc1cc(=O)c2cc(-c3ccc(F)cc3)ccc2[nH]1 [Compound 1-11, 2-(Aminomethyl)-6-(4-fluorophenyl)quinolin-4(1H)-one]
IC50 (human LOXL2): < 0.3 µM

COc1ccc(-c2ccc3[nH]c(CN)cc(=O)c3c2)cc1F [Compound 1-72, 2-(Aminomethyl)-6-(3-fluoro-4-methoxyphenyl)quinolin-4(1H)-one]
IC50 (human LOXL2): < 0.3 µM

NCc1cc(=O)c2cc(Oc3ccccc3)ccc2[nH]1 [Compound 1-21, 2-(Aminomethyl)-6-phenoxyquinolin-4(1H)-one]
IC50 (human LOXL2): < 0.3 µM

NCc1cc(=O)c2cc(C#Cc3ccccc3)ccc2[nH]1 [Compound 1-7, 2-(Aminomethyl)-6-(phenylethynyl)quinolin-4(1H)-one]
IC50 (human LOXL2): < 0.3 µM

Cn1cc(-c2ccc3[nH]c(CN)cc(=O)c3c2)cn1 [Compound 1-47, 2-(Aminomethyl)-6-(1-methyl-1H-pyrazol-4-yl)quinolin-4(1H)-one]
IC50 (human LOXL2): < 0.3 µM

NCc1cc(=O)c2cc(-c3ccc(F)cc3Cl)ccc2[nH]1 [Compound 1-70, 2-(Aminomethyl)-6-(2-chloro-4-fluorophenyl)quinolin-4(1H)-one]
IC50 (human LOXL2): < 0.3 µM
